Data taken from patent publication US20110082157A1, “Piperidinylamino-Thieno [2,3-D] Pyrimidine Compounds” (priority 2004, published 2011).
Where a name gives a salt, the structure may show the parent alone.

Columns and labels:
hERG = hERG (Homo sapiens, UniProt Q12809); experiment: hERG % inhibition at 1 uM
5HT2B = 5HT2B (Homo sapiens, UniProt P41595); experiment: 5HT2B binding (Ki of Biological Data Table)
HLM T1/2 = settings: human, liver microsomes

Chain of hERG (Q12809 whole entry): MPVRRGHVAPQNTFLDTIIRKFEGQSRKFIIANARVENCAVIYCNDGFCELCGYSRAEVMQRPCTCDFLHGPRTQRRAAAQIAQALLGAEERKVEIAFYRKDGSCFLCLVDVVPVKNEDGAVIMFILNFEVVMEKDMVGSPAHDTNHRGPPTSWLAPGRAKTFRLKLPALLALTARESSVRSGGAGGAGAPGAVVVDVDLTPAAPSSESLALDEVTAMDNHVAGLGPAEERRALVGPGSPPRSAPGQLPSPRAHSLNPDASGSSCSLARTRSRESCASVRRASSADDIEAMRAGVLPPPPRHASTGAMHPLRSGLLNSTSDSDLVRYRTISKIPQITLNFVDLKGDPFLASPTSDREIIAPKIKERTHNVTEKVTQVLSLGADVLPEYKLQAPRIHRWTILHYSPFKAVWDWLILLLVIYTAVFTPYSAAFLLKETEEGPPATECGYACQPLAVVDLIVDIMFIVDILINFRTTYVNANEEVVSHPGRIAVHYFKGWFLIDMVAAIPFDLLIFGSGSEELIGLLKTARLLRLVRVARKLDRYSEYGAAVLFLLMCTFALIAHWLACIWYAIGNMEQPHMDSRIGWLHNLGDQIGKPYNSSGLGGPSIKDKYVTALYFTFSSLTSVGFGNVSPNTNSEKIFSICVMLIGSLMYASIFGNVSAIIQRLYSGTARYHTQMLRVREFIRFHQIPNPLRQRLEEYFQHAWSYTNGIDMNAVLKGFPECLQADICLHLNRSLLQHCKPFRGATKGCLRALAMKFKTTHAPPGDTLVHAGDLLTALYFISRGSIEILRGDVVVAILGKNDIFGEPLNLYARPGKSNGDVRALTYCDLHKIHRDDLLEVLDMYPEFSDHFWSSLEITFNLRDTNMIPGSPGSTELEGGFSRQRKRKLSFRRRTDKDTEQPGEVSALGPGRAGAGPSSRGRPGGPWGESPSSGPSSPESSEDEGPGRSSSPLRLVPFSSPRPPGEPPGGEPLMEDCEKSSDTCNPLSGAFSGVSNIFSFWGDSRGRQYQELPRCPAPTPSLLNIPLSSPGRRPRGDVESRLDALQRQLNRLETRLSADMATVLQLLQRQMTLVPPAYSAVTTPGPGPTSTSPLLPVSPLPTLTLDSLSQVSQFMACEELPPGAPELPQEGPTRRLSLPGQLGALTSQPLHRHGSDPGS
Chain of 5HT2B (P41595 whole entry, species assumed): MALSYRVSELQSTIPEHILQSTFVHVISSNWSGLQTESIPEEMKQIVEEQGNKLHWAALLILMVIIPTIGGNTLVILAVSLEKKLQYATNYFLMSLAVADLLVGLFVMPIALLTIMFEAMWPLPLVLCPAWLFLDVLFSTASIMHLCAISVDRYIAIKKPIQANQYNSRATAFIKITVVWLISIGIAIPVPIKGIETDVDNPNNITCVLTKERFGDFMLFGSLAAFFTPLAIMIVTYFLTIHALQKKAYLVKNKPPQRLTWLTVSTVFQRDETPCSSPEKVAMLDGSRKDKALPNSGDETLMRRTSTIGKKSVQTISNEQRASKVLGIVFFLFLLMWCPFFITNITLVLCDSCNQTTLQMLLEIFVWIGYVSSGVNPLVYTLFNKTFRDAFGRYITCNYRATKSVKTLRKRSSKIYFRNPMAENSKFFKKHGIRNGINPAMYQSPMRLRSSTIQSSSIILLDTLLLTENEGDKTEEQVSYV

half-life (HLM T1/2)	SMILES	also measured
< 15 min	CC(c1cccc(F)c1)N1CCC(Nc2ncnc3sc4c(c23)CCCC4)CC1 (centres unmarked) [Example B10, N-(1-(1-(3-fluorophenyl)ethyl)piperidin-4-yl)-(5,6,7,8-tetrahydro-benzo[4,5]thieno[2,3-d]pyrimidin-4-amine, dihydrochloride]	
< 15 min	Cc1sc2ncnc(NC3CCN(C(C)c4cccc(F)c4)CC3)c2c1C (centres unmarked) [Example B13, N-(1-(1-(3-fluorophenyl)ethyl)piperidin-4-yl)-5,6-dimethylthieno[2,3-d] pyrimidin-4-amine, dihydrochloride]	
< 15 min	CC(C)CC(c1cccc(F)c1)N1CCC(Nc2ncnc3sc4c(c23)CCCC4)CC1 (centres unmarked) [Example B16, N-(1-(1-(3-fluorophenyl)-3-methylbutyl)piperidin-4-yl)5,6,7,8-tetrahydro-benzo[4,5]thieno[2,3-d] pyrimidin-4-amine, dihydrochloride]	
< 15 min	CC(C)Cc1cc2c(NC3CCN(C(C)c4c(F)cc(F)cc4F)CC3)ncnc2s1 (centres unmarked) [Example B19, N-(1-(1-(2,4,6-trifluorophenyl)ethyl)piperidin-4-yl)-6-isobutylthieno[2,3-d]pyrimidin-4-amine, dihydrochloride]	hERG (% Inhibition at 1 uM) (hERG): hERG (% Inhibition at 1 uM): 50.2
< 15 min	CC(C)Cc1cc2c(NC3CCN(C(C)c4c(F)cccc4F)CC3)ncnc2s1 (centres unmarked) [Example B20, N-(1-(1-(2,6-difluorophenyl)ethyl)piperidin-4-yl)-6-isobutylthieno[2,3-d] pyrimidin-4-amine, dihydrochloride]	hERG (% Inhibition at 1 uM) (hERG): hERG (% Inhibition at 1 uM): 73.4
< 15 min	CC(c1c(F)cccc1F)N1CCC(Nc2ncnc3sc4c(c23)CCCC4)CC1 (centres unmarked) [Example B21, N-(1-(1-(2,6-difluorophenyl)ethyl)piperidin-4-yl)5,6,7,8-tetrahydro-benzo[4,5]thieno[2,3-d]pyrimidin-4-amine, dihydrochloride]	
< 15 min	CC(C)(c1cccc(F)c1)N1CCC(Nc2ncnc3sc4c(c23)CCCC4)CC1 [Example B24, N-(1-(2-(3-fluorophenyl)propan-2-yl)piperidin-4-yl)5,6,7,8-tetrahydro-benzo[4,5]thieno[2,3-d]pyrimidin-4-amine, dihydrochloride]	
< 15 min	CC(C)Cc1cc2c(NCCCNC(C)c3cccc(F)c3)ncnc2s1 (centres unmarked) [Example B27, N-(3-(1-(3-fluorophenyl)ethylamino)propyl)-6-isobutylthieno[2,3-d]pyrimidin-4-amine, dihydrochloride]	
18 min	CC(C)Cc1cc2c(N3CCC(NCc4cc(F)cc(F)c4)CC3)ncnc2s1 [Example B29, N-(3,5-difluorobenzyl)-1-(6-isobutylthieno[2,3-d]pyrimidin-4-yl) piperidin-4-amine, dihydrochloride]	
11 min	Cc1c(Cl)sc2ncnc(NC3CCN(Cc4cccc(F)c4)CC3)c12 [Example B37, N-(1-(3-fluorobenzyl)piperidin-4-yl)-6-chloro-5-methylthieno[2,3-d]pyrimidin-4-amine, dihydrochloride]	
< 15 min	COc1ccccc1CN1CCC(Nc2ncnc3sc(Cl)c(C)c23)CC1 [Example B40, N-(1-(2-methoxybenzyl)piperidin-4-yl)-6-chloro-5-methylthieno[2,3-d] pyrimidin-4-amine, dihydrochloride]	
86 min	NC(=O)c1cccc(CN2CCC(Nc3ncnc4sc(Cl)cc34)CC2)c1 [Example B45, 3-((4-(6-chlorothieno [2,3-d]pyrimidin-4-ylamino)piperidin-1-yl)methyl) benzamide, monomaleate]	
< 15 min	Fc1ccccc1CN1CCC(Nc2ncnc3sc(Cl)cc23)CC1 [Example B46, N-(1-(2-fluorobenzyl)piperidin-4-yl)-6-chlorothieno[2,3-d]pyrimidin-4-amine, monomaleate]	hERG (% Inhibition at 1 uM) (hERG): hERG (% Inhibition at 1 uM): 39.5
60 min	Clc1cc2c(NC3CCN(Cc4cncnc4)CC3)ncnc2s1 [Example B49, 6-chloro-N-(1-((pyrimidin-5-yl)methyl)piperidin-4-yl)thieno[2,3-d] pyrimidin-4-amine, monomaleate]	
10 min	N#Cc1ccc(F)c(CN2CCC(Nc3ncnc4sc(Cl)cc34)CC2)c1 [Example B51, 3-((4-(6-chlorothieno [2,3-d]pyrimidin-4-ylamino)piperidin-1-yl)methyl)-4-fluorobenzonitrile, monomaleate]	
11 min	Clc1cccc(CN2CCC(Nc3ncnc4sc(Cl)cc34)CC2)c1 [Example B52, N-(1-(3-chlorobenzyl)piperidin-4-yl)-6-chlorothieno[2,3-d]pyrimidin-4-amine, monomaleate]	
8 min	CC(C)c1c(Cl)sc2ncnc(NC3CCN(Cc4cccc(F)c4)CC3)c12 [Example B53, N-(1-(3-fluorobenzyl)piperidin-4-yl)-6-chloro-5-isopropylthieno[2,3-d]pyrimidin-4-amine, monomaleate]	
16 min	FC(F)(F)c1cccc(CN2CCC(Nc3ncnc4sc(Cl)cc34)CC2)c1 [Example B54, N-(1-(3-(trifluoromethyl)benzyl)piperidin-4-yl)-6-chlorothieno[2,3-d]pyrimidin-4-amine, monomaleate]	

Continued, molecule first:

SMILES	half-life (HLM T1/2)	also measured
Fc1ccccc1CN1CCC(Nc2ncnc3sc4c(c23)CCCC4)CC1 [Example B4, N-(1-(2-fluorobenzyl)piperidin-4-yl)5,6,7,8-tetrahydro-benzo[4,5]thieno[2,3-d]pyrimidin-4-amine]		hERG (% Inhibition at 1 uM) (hERG): hERG (% Inhibition at 1 uM): 58.5
CN1CCC(N(C)c2ncnc3sc4c(c23)CCCC4)CC1 [Example B5, N-methyl-N-(1-methylpiperidin-4-yl)5,6,7,8-tetrahydro-benzo[4,5] thieno[2,3-d]pyrimidin-4-amine]		% at 10 nM (5HT2B): -2%; % at 100 nM (5HT2B): 11%; % at 1000 nM (5HT2B): 67%
c1ccc(CN2CCC(Nc3ncnc4scc(-c5ccccc5)c34)CC2)cc1 [Example B6, N-(1-benzylpiperidin-4-yl)-5-phenylthieno [2,3-d]pyrimidin-4-amine]	< 15 min	% at 10 nM (5HT2B): 38%; % at 100 nM (5HT2B): 91%; % at 1000 nM (5HT2B): 101%
Oc1cc(C(F)(F)F)cnc1N1CCC(Nc2ncnc3scc(-c4ccccc4)c23)CC1 [Example B7, 2-(4-(5-phenylthieno [2,3-d]pyrimidin-4-ylamino)piperidin-1-yl)-5-(trifluoromethyl) pyridin-3-ol]		% at 10 nM (5HT2B): 3%; % at 100 nM (5HT2B): 4%; % at 1000 nM (5HT2B): 30%
c1ccc(CN2CCC(Nc3ncnc4sccc34)CC2)cc1 [Example B8, N-(1-benzylpiperidin-4-yl)thieno [2,3-d]pyrimidin-4-amine]		% at 10 nM (5HT2B): 13%; % at 100 nM (5HT2B): 62%; % at 1000 nM (5HT2B): 96%
Cc1csc2ncnc(NC3CCN(Cc4ccccc4)CC3)c12 [Example B9, N-(1-benzylpiperidin-4-yl)-5-methylthieno [2,3-d]pyrimidin-4-amine]		% at 10 nM (5HT2B): 15%; % at 100 nM (5HT2B): 62%; % at 1000 nM (5HT2B): 97%
CC(c1cccc(F)c1)N1CCC(C)(Nc2ncnc3sc4c(c23)CCCC4)CC1 (centres unmarked) [Example B15, N-(1-(1-(3-fluorophenyl)ethyl)-4-methylpiperidin-4-yl) 5,6,7,8-tetrahydro-benzo[4,5]thieno[2,3-d]pyrimidin-4-amine, dihydrochloride]	< 15 min	
CC(C#N)(c1cccc(F)c1)N1CCC(Nc2ncnc3sc4c(c23)CCCC4)CC1 (centres unmarked) [Example B23, 2-(3-fluorophenyl)-2-(4-(5,6,7,8-tetrahydro-benzo[4,5]thieno[2,3-d]pyrimidin-4-ylamino)piperidin-1-yl) propanenitrile, dihydrochloride]	< 15 min	
Fc1cccc(CNCCCNc2ncnc3sc4c(c23)CCCC4)c1 [Example B25, N-(3-(3-fluorobenzylamino)propyl)5,6,7,8-tetrahydro-benzo[4,5]thieno[2,3-d]pyrimidin-4-amine, dihydrochloride]	< 15 min	
CC(NCCCNc1ncnc2sc3c(c12)CCCC3)c1cccc(F)c1 (centres unmarked) [Example B26, N-(3-(1-(3-fluorophenyl)ethylamino)propyl) 5,6,7,8-tetrahydro-benzo[4,5]thieno[2,3-d] pyrimidin-4-amine, dihydrochloride]	< 15 min	
Fc1cccc(C(N2CCC(Nc3ncnc4sc5c(c34)CCCC5)CC2)C(F)(F)F)c1 (centres unmarked) [Example B28, N-(1-(2,2,2-trifluoro-1-(3-fluorophenyl)ethyl)piperidin-4-yl)5,6,7,8-tetrahydro-benzo[4,5]thieno[2,3-d]pyrimidin-4-amine, dihydrochloride]	11 min	
Fc1cc(F)cc(CN2CCC(Nc3ncnc4sc(Cl)cc34)CC2)c1 [Example B33, N-(1-(3,5-difluorobenzyl)piperidin-4-yl)-6-chlorothieno[2,3-d]pyrimidin-4-amine, dihydrochloride]	13 min	hERG (% Inhibition at 1 uM) (hERG): hERG (% Inhibition at 1 uM): 22.8
Cc1sc2ncnc(NC3CCN(CC4CCCCC4)CC3)c2c1C [Example B35, N-(1-(cyclohexylmethyl)piperidin-4-yl)-5,6-dimethylthieno[2,3-d]pyrimidin-4-amine, dihydrochloride]	< 15 min	hERG (% Inhibition at 1 uM) (hERG): hERG (% Inhibition at 1 uM): 91.7
Cc1sc2ncnc(NC3CCN(Cc4ccccc4C#N)CC3)c2c1C [Example B36, 2-((4-(5,6-dimethylthieno[2,3-d]pyrimidin-4-ylamino)piperidin-1-yl)methyl)benzonitrile, dihydrochloride]		hERG (% Inhibition at 1 uM) (hERG): hERG (% Inhibition at 1 uM): 21.7
Cc1c(Cl)sc2ncnc(NC3CCN(Cc4ccccc4C#N)CC3)c12 [Example B39, 2-((4-(6-chloro-5-methylthieno[2,3-d]pyrimidin-4-ylamino)piperidin-1-yl)methyl) benzonitrile, dihydrochloride]	< 15 min	
Fc1cccc(CN2CCC(Nc3ncnc4sc(Cl)cc34)CC2)c1 [Example B41, N-(1-(3-fluorobenzyl)piperidin-4-yl)-6-chlorothieno[2,3-d]pyrimidin-4-amine, dihydrochloride]	10 min	
